Results: patent publication US12071671B2 (priority 2018, dated 2024)
Read-outs that look alike come from different tables or passages of the source.

Columns and labels:
[1] = tested on: HMCLs with the low AOX/ROS risk signatures (JJN3, XG-6, XG-19, XG-20, XG-24); assay: HMCL viability, Cell Titer Glo assay, IC50 at 96h (low AOX/ROS risk signature lines); assay type: cell-based, human; details: for IC50: Homo sapiens; for fold higher sensitivity of low AOX/ROS HMCLs as compared to high AOX/ROS HMCLs: ratio of median IC50 at 96h, p<0.003
Procedure: (§1) The HMCLs XG-6, XG-19, XG-20, XG24, JJN3, AMO1, LP1, L363, OPM2 and RPMI8226 were grown in RPMI-1640 supplemented with 10% FBS. XG-6, XG-19, XG-20, XG-24, and LP1 media was supplemented with 2 ng/mL recombinant IL-6. Cells were plated in 96-well plate in 200 μL complete medium. After 24h, cells were treated with increasing concentrations of Melphalan (European Pharmacopeia Reference-Standards, France) or Bortezomib (Axon, Medchem, France) and at day 4 post treatment, the viable cells were assessed using Cell Titer Glo assay (Promega, Madison, WI). The IC50 at 96h were determined using GraphPad Prism software.
(§2) Considering the GEP of 40 HMCLs (Moreaux et al., 2011), HMCLs AOX and ROS risk signatures were determined. The 5 HMCLs with the highest (AMO1, L363, LP1, OPM2, RPMI8266) and the lowest (JJN3, XG-6, XG-19, XG-20, XG-24) AOX/ROS scores were selected to assay Melphalan and Bortezomib sensitivities (Moreaux et al., 2012 and Moreaux et al., 2013).

[2] = tested on: HMCLs with high AOX/ROS risk signatures (AMO1, L363, LP1, OPM2, RPMI8266); assay: HMCL viability, Cell Titer Glo assay, IC50 at 96h (high AOX/ROS risk signature lines); assay type: cell-based; details: Homo sapiens
Procedure: as §1, §2

[3] = tested on: CD138+ cells from patients (primary myeloma cells); assay: Primary CD138+ myeloma cells from patient bone marrow samples, flow cytometry with anti-CD138 APC antibody after 5 days; assay type: cell-based, human; details: 5 mM GSH with 10, 20 and 30 μM Melphalan, n=10 patients, p<0.05
Procedure: After 5 days the percentage and absolute number of CD138^+ cells was assessed by flow cytometry using an anti-CD138 APC antibody. * indicates a significant difference using a Student test for pairs (P≤0.05).

Compound | IC50 ([1]; JJN-3, low AOX/ROS HMCLs, 96h, median over 5 cell lines, read-out: Median IC50) | IC50 ([1]; JJN-3, low AOX/ROS HMCLs, 96h, range over 5 cell lines, read-out: IC50 range) | fold higher sensitivity of low AOX/ROS HMCLs as compared to high AOX/ROS HMCLs [1] | IC50 ([2]; read-out: IC50 range) | IC50 ([2]; read-out: Median IC50) | IC50 ([1]; JJN-3, 96 h, read-out: IC50 range) | IC50 ([1]; JJN-3, 96 h, read-out: Median IC50) | protection of primary myeloma cells from melphalan induced apoptosis [3]
CC(C)C[C@H](NC(=O)[C@H](Cc1ccccc1)NC(=O)c1cnccn1)B(O)O [Bortezomib] | 0.00051 µM | 0.00027 to 0.00085 µM | 3.5 fold | – | – | – | – | –
N[C@@H](Cc1ccc(N(CCCl)CCCl)cc1)C(=O)O [Melphalan] | – | – | 4 fold | 9.02 to 18.7 µM | 13.7 µM | 2.25 to 8.34 µM | 3.11 µM | –
N[C@@H](CCC(=O)N[C@@H](CS)C(=O)NCC(=O)O)C(=O)O [GSH, glutathione] | – | – | – | – | – | – | – | significantly protect
